Experimental data published in US9474790B2, “Stable, protracted GLP-1/glucagon receptor co-agonists for medical use” (Novo Nordisk A/S, priority 2013, dated 2016).
Numbered stars: 1 amine (or outer) side, 2 acyl side, 3 side chain; on linkers, the order of the positions; unused ones are H or OH. Square brackets hold non-standard residues; d marks the D form. Side chains are listed from the residue outwards. Peptide text beside a SMILES is read from it. * marks the point of attachment. C18 diacid = O=C(O)CCCCCCCCCCCCCCCCC(=O)*; γGlu = O=C(O)[C@H](CCC(=O)[*:2])N[*:1]; Ac4c = NC1(C(=O)O)CCC1; AEEA = NCCOCCOCC(=O)O; Aib = CC(C)(N)C(=O)O

target: T1, human glucagon receptor (Homo sapiens, UniProt P47871); experiment: Glucagon receptor potency, CRE luciferase reporter gene assay in BHK cells; format: cell-based; conditions: BHK cells expressing human glucagon receptor, read-out: EC50 GlucR
T1 construct: expressed in transfected cells; host or cells: BHK cells (parent BHK570, CRE luciferase clone BHK/KZ10-20-48), clone pLJ6'-4-25
T1 sequence (P47871 26-477): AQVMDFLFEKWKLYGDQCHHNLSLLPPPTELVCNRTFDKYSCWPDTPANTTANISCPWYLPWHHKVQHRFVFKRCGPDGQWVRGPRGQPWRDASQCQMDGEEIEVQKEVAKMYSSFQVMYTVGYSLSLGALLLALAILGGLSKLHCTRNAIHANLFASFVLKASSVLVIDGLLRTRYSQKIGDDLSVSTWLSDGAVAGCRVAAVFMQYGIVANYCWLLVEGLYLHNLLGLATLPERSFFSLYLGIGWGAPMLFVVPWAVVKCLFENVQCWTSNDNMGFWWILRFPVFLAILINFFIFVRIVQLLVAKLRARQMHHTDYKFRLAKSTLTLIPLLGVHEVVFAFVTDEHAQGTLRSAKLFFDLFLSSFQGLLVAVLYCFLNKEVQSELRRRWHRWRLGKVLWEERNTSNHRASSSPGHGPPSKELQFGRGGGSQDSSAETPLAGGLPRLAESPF
In short: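 EC50 (pM) comes from a four-parameter fit of luciferase luminescence after 3 h at 37 °C with compound at final 1×10EE-13–1×10EE-6 M. Cells: BHK570-derived line carrying human glucagon receptor plus CRE-luciferase, 5×10EE3/well, in assay medium with 2% ovalbumin, 0.2% Pluronic F-68.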

Row | EC50 | SMILES
1 | 0.01 nM | CC(C)C[C@H](NC(=O)[C@H](Cc1ccc(O)cc1)NC(=O)[C@H](CCCCN)NC(=O)[C@H](CO)NC(=O)[C@H](CC(C)C)NC(=O)[C@H](CC(=O)O)NC(=O)[C@H](CO)NC(=O)[C@@H](NC(=O)[C@H](Cc1ccccc1)NC(=O)[C@@H](NC(=O)CNC(=O)[C@H](CCC(N)=O)NC(=O)C1(NC(=O)[C@@H](N)Cc2c[nH]cn2)CCC1)[C@@H](C)O)[C@@H](C)O)C(=O)N[C@@H](CCC(=O)O)C(=O)N[C@@H](CO)C(=O)N[C@@H](CCCNC(=N)N)C(=O)N[C@@H](CCCNC(=N)N)C(=O)N[C@@H](C)C(=O)N[C@@H](CCCNC(=N)N)C(=O)N[C@@H](CCC(=O)O)C(=O)N[C@@H](Cc1ccccc1)C(=O)N[C@H](C(=O)N[C@@H](CCC(N)=O)C(=O)N[C@@H](Cc1c[nH]c2ccccc12)C(=O)N[C@@H](CC(C)C)C(=O)N[C@@H](CC(C)C)C(=O)N[C@@H](CCCCNC(=O)CC[C@H](NC(=O)CC[C@H](NC(=O)COCCOCCNC(=O)COCCOCCNC(=O)CC[C@H](NC(=O)CCCCCCCCCCCCCCCCC(=O)O)C(=O)O)C(=O)O)C(=O)O)C(=O)N[C@H](C(N)=O)[C@@H](C)O)C(C)C [Example 44, N^ε28-[(4S)-4-carboxy-4-[[(4S)-4-carboxy-4-[[2-[2-[2-[[2-[2-[2-[[(4S)-4-carboxy-4-(17-carboxyheptadecanoylamino)butanoyl]amino]ethoxy]ethoxy]acetyl]amino]ethoxy]ethoxy]acetyl]amino]butanoyl]amino]butanoyl]-[Acb2,Leu10,Glu15,Arg20,Glu21,Leu27,Lys28]-Glucagon amide] (H-H[Ac4c]QGTFTSDLSKYLESRRAREFVQWLLK([γGlu-γGlu-AEEA-AEEA-γGlu-C18 diacid])T-NH2; N-terminus assumed)
2 | 0.016 nM | CC(C)C[C@H](NC(=O)[C@H](CC(=O)O)NC(=O)[C@H](CC(C)C)NC(=O)[C@H](Cc1ccc(O)cc1)NC(=O)[C@H](CCCNC(=N)N)NC(=O)[C@H](CO)NC(=O)[C@H](CC(C)C)NC(=O)[C@H](CC(=O)O)NC(=O)[C@H](CO)NC(=O)[C@@H](NC(=O)[C@H](Cc1ccccc1)NC(=O)[C@@H](NC(=O)CNC(=O)[C@H](CCC(N)=O)NC(=O)C1(NC(=O)[C@@H](N)Cc2c[nH]cn2)CCC1)[C@@H](C)O)[C@@H](C)O)C(=O)N[C@@H](CCCNC(=N)N)C(=O)N[C@@H](CCCNC(=N)N)C(=O)N[C@@H](C)C(=O)N[C@@H](CCCNC(=N)N)C(=O)N[C@@H](CC(=O)O)C(=O)N[C@@H](Cc1ccccc1)C(=O)N[C@H](C(=O)N[C@@H](CCC(N)=O)C(=O)N[C@@H](Cc1c[nH]c2ccccc12)C(=O)N[C@@H](CC(C)C)C(=O)N[C@@H](CC(C)C)C(=O)N[C@@H](CCCCNC(=O)CC[C@H](NC(=O)CC[C@H](NC(=O)COCCOCCNC(=O)COCCOCCNC(=O)CC[C@H](NC(=O)CC[C@H](NC(=O)CCCCCCCCCCCCCCCCC(=O)O)C(=O)O)C(=O)O)C(=O)O)C(=O)O)C(=O)N[C@H](C(N)=O)[C@@H](C)O)C(C)C [Example 46, N^ε28-[(4S)-4-carboxy-4-[[(4S)-4-carboxy-4-[[2-[2-[2-[[2-[2-[2-[[(4S)-4-carboxy-4-[[(4S)-4-carboxy-4-(17-carboxyheptadecanoylamino)butanoyl]amino]butanoyl]amino]ethoxy]ethoxy]acetyl]amino]ethoxy]ethoxy]acetyl]amino]butanoyl]amino]butanoyl]-[Acb2,Leu10,Arg12,Leu16,Arg20,Leu27,Lys28]-Glucagon amide] (H-H[Ac4c]QGTFTSDLSRYLDLRRARDFVQWLLK([γGlu-γGlu-AEEA-AEEA-γGlu-γGlu-C18 diacid])T-NH2; N-terminus assumed)

Second part, the molecule before the results:

Row | SMILES | EC50
3 | CC(C)C[C@H](NC(=O)[C@H](Cc1ccc(O)cc1)NC(=O)[C@H](CCCCN)NC(=O)[C@H](CO)NC(=O)[C@H](CC(C)C)NC(=O)[C@H](CC(=O)O)NC(=O)[C@H](CO)NC(=O)[C@@H](NC(=O)[C@H](Cc1ccccc1)NC(=O)[C@@H](NC(=O)CNC(=O)[C@H](CCC(N)=O)NC(=O)C(C)(C)NC(=O)[C@@H](N)Cc1c[nH]cn1)[C@@H](C)O)[C@@H](C)O)C(=O)N[C@@H](CCC(=O)O)C(=O)N[C@@H](CO)C(=O)N[C@@H](CCCNC(=N)N)C(=O)N[C@@H](CCCNC(=N)N)C(=O)N[C@@H](C)C(=O)N[C@@H](CCCNC(=N)N)C(=O)N[C@@H](CCC(=O)O)C(=O)N[C@@H](Cc1ccccc1)C(=O)N[C@H](C(=O)N[C@@H](CCC(N)=O)C(=O)N[C@@H](Cc1c[nH]c2ccccc12)C(=O)N[C@@H](CC(C)C)C(=O)N[C@@H](CC(C)C)C(=O)N[C@@H](CCCCNC(=O)CC[C@H](NC(=O)CC[C@H](NC(=O)CC[C@H](NC(=O)CCCCCCCCCCCCCCCCC(=O)O)C(=O)O)C(=O)O)C(=O)O)C(=O)N[C@H](C(N)=O)[C@@H](C)O)C(C)C [Example 41, N^ε28-[(4S)-4-carboxy-4-[[(4S)-4-carboxy-4-[[(4S)-4-carboxy-4-(17-carboxyheptadecanoylamino)butanoyl]amino]butanoyl]amino]butanoyl]-[Aib2,Leu10,Glu15, Arg20,Glu21,Leu27,Lys28]-Glucagon amide] (H-H[Aib]QGTFTSDLSKYLESRRAREFVQWLLK([γGlu-γGlu-γGlu-C18 diacid])T-NH2; N-terminus assumed) | 0.029 nM
4 | CC(C)C[C@H](NC(=O)[C@H](Cc1ccc(O)cc1)NC(=O)[C@H](CCCCN)NC(=O)[C@H](CO)NC(=O)[C@H](CC(C)C)NC(=O)[C@H](CC(=O)O)NC(=O)[C@H](CO)NC(=O)[C@@H](NC(=O)[C@H](Cc1ccccc1)NC(=O)[C@@H](NC(=O)CNC(=O)[C@H](CCC(N)=O)NC(=O)C(C)(C)NC(=O)[C@@H](N)Cc1c[nH]cn1)[C@@H](C)O)[C@@H](C)O)C(=O)N[C@@H](CCC(=O)O)C(=O)N[C@@H](CO)C(=O)N[C@@H](CCCNC(=N)N)C(=O)N[C@@H](CCCNC(=N)N)C(=O)N[C@@H](C)C(=O)N[C@@H](CCCNC(=N)N)C(=O)N[C@@H](CCC(=O)O)C(=O)N[C@@H](Cc1ccccc1)C(=O)N[C@H](C(=O)N[C@@H](CCC(N)=O)C(=O)N[C@@H](Cc1c[nH]c2ccccc12)C(=O)N[C@@H](CC(C)C)C(=O)N[C@@H](CC(C)C)C(=O)N[C@@H](CCCCNC(=O)COCCOCCNC(=O)COCCOCCNC(=O)CC[C@H](NC(=O)CC[C@H](NC(=O)CC[C@H](NC(=O)CCCCCCCCCCCCCCCCC(=O)O)C(=O)O)C(=O)O)C(=O)O)C(=O)N[C@H](C(N)=O)[C@@H](C)O)C(C)C [Example 42, N^ε28-[2-[2-[2-[[2-[2-[2-[[(4S)-4-carboxy-4-[[(4S)-4-carboxy-4-[[(4S)-4-carboxy-4-(17-carboxyheptadecanoylamino)butanoyl]amino]butanoyl]amino]butanoyl]amino]ethoxy]ethoxy]acetyl]amino]ethoxy]ethoxy]acetyl]-[Aib2,Leu10,Glu15,Arg20,Glu21,Leu27,Lys28]-Glucagon amide] (H-H[Aib]QGTFTSDLSKYLESRRAREFVQWLLK([AEEA-AEEA-γGlu-γGlu-γGlu-C18 diacid])T-NH2; N-terminus assumed) | 0.032 nM
5 | CC(C)C[C@H](NC(=O)[C@H](Cc1ccc(O)cc1)NC(=O)[C@H](CCCCN)NC(=O)[C@H](CO)NC(=O)[C@H](CC(C)C)NC(=O)[C@H](CC(=O)O)NC(=O)[C@H](CO)NC(=O)[C@@H](NC(=O)[C@H](Cc1ccccc1)NC(=O)[C@@H](NC(=O)CNC(=O)[C@H](CCC(N)=O)NC(=O)C(C)(C)NC(=O)[C@@H](N)Cc1c[nH]cn1)[C@@H](C)O)[C@@H](C)O)C(=O)N[C@@H](CC(=O)O)C(=O)N[C@@H](C)C(=O)N[C@@H](CCCNC(=N)N)C(=O)N[C@@H](CCCNC(=N)N)C(=O)N[C@@H](C)C(=O)N[C@@H](CCCNC(=N)N)C(=O)N[C@@H](CCC(=O)O)C(=O)N[C@@H](Cc1ccccc1)C(=O)N[C@H](C(=O)N[C@@H](CCC(N)=O)C(=O)N[C@@H](Cc1c[nH]c2ccccc12)C(=O)N[C@@H](CC(C)C)C(=O)N[C@@H](CC(C)C)C(=O)N[C@@H](CCCCNC(=O)CC[C@H](NC(=O)CC[C@H](NC(=O)COCCOCCNC(=O)COCCOCCNC(=O)CC[C@H](NC(=O)CCCCCCCCCCCCCCCCC(=O)O)C(=O)O)C(=O)O)C(=O)O)C(=O)N[C@H](C(N)=O)[C@@H](C)O)C(C)C [Example 43, N^ε28-[(4S)-4-carboxy-4-[[(4S)-4-carboxy-4-[[2-[2-[2-[[2-[2-[2-[[(4S)-4-carboxy-4-(17-carboxyheptadecanoylamino)butanoyl]amino]ethoxy]ethoxy]acetyl]amino]ethoxy]ethoxy]acetyl]amino]butanoyl]amino]butanoyl]-[Aib2,Leu10,Ala16,Arg20,Glu21,Leu27,Lys28]-Glucagon amide] (H-H[Aib]QGTFTSDLSKYLDARRAREFVQWLLK([γGlu-γGlu-AEEA-AEEA-γGlu-C18 diacid])T-NH2; N-terminus assumed) | 0.002 nM
